Test results as given in patent US8318731B2, “Pyrrolopyrimidines” (Janssen Pharmaceutica NV, priority 2007, dated 2012).

What was measured:
PLK4 (h) = target: T1, PLK4 (h) (Homo sapiens, UniProt O00444); assay: PLK-4 human kinase scintillation proximity assay (SPA); format: biochemical; settings: 1 μM ATP, 60 minutes at r.t., read-out: PLK4 pIC50 (converted)
T1 sequence (O00444 1-970): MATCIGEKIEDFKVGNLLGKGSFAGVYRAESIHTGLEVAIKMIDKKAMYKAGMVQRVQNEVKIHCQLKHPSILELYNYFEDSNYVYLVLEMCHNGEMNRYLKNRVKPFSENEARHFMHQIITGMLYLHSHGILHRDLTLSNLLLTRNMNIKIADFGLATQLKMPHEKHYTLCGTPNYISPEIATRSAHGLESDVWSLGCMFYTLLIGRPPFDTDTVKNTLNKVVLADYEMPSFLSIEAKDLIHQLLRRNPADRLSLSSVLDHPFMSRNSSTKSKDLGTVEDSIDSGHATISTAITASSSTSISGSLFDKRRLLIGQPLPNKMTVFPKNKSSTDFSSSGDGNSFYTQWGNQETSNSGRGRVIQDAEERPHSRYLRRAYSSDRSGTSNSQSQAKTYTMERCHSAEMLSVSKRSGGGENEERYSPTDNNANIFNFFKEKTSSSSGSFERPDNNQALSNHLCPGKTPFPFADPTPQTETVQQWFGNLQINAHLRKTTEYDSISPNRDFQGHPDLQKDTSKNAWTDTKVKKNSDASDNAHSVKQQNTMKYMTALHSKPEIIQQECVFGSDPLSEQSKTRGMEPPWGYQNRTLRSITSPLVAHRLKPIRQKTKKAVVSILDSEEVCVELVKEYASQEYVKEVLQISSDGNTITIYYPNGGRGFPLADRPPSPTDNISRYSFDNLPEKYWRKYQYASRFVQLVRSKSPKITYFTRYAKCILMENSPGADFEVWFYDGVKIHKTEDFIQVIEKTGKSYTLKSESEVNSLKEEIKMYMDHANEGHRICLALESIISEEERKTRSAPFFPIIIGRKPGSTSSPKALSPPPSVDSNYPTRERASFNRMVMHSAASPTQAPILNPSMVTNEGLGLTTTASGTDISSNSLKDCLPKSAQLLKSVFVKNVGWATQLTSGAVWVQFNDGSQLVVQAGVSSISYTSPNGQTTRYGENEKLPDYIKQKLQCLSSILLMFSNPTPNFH
Procedure, shortened: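 Human PLK4 (19 μg/ml) reacted with 10 μM biotinylated peptide, 1 μM ATP plus 2 nM [γ-33P]ATP in HEPES pH 8.0 with MgCl2, NaCl, NaF and DTT for 60 min at r.t. After an EDTA stop, phosphorylated substrate was captured on streptavidin PVT SPA beads and scintillation imaged.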

HCT-116 = assay: Cellular proliferation assay (Alamar blue), HCT-116; format: cell-based; settings: Homo sapiens; HCT-116 cells; 10% FCS; 72 h with compound; Alamar blue 4 h; read-out: pIC50 HCT-116 (converted)
Procedure, shortened: (§1)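 Cells in 10% FCS (37° C., 5% CO2) were seeded 24 hours before a 72-hour compound exposure. Viable cells were measured by Alamar blue fluorescence (544 nm/590 nm) after dye incubation of 4 h (HCT-116), 6 h (U87-MG) or 24 h (PC3, A2780). Effect is relative to control cells.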

H1299 = assay: Cellular proliferation assay (Alamar blue), H1299; format: cell-based; settings: Homo sapiens, NCI-H1299, H1299 cells; 10% FCS; 72 h with compound; Alamar blue 4 h; read-out: pIC50 H1299 (converted)
Procedure, shortened: (§2)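 Viable cell number is determined by Alamar blue conversion after cells are treated with compound for 72 hours, following 24 hours of growth without compound in 10% FCS. The effect is calculated against control cells.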

U87-MG = assay: Cellular proliferation assay (Alamar blue), U87-MG; format: cell-based; settings: Homo sapiens, U-87 MG; U87-MG cells; 10% FCS; 72 h with compound; Alamar blue 6 h; read-out: pIC50 U87MG (converted)
Procedure, shortened: as §1

A2780 = assay: Cellular proliferation assay (Alamar blue), A2780; format: cell-based; settings: Homo sapiens, A2780, A2780 cells; 10% FCS; 72 h with compound; Alamar blue 24 h; read-out: pIC50 A2780 (converted)
Procedure, shortened: as §1

PC3 = assay: Cellular proliferation assay (Alamar blue), PC3; format: cell-based; settings: Homo sapiens, PC-3, PC-3 cells; 10% FCS; 72 h with compound; Alamar blue 24 h; read-out: pIC50 PC-3 (converted)
Procedure, shortened: as §1

MDA-MB-231 = assay: Cellular proliferation assay (Alamar blue), MDA-MB-231; format: cell-based; settings: Homo sapiens, MDA-MB-231, MDA-MB-231 cells; 10% FCS; 72 h with compound; Alamar blue 24 h; read-out: pIC50 MDA/MB231 (converted)
Procedure, shortened: as §2

SMILES	IC50 (PLK4 (h)) [µM]	IC50 (HCT-116) [µM]	IC50 (H1299) [µM]	IC50 (U87-MG) [µM]	IC50 (A2780) [µM]	IC50 (PC3) [µM]	IC50 (MDA-MB-231) [µM]
COc1ccc2cc1OCC(=O)N[C@@H](C)CN(C)CCCc1c[nH]c3ncnc(c13)N2 [Compound 28]	> 10	> 10	> 10	> 10	> 10	> 10	> 10
COc1ccc2cc1OCC(=O)N[C@H](CO)CN(C)CCCc1c[nH]c3ncnc(c13)N2 [Compound 3]	1.58	> 10	> 10	> 10	> 10	> 10	> 10
COCCOCCOc1ccc2cc1OCC(=O)N(C)CCCN(C)Cc1c[nH]c3ncnc(c13)N2 [Compound 128]	0.0251	0.501	1	2.51	0.398	6.31	5.01
CN1CCCN(C)C(=O)COc2cc(ccc2NC(=O)Nc2cccc(Cl)c2)Nc2ncnc3[nH]cc(c23)C1 [Compound 67]	0.0631	0.794	2.51	> 10	2.51	> 10	> 10
CN1CCCN(C)C(=O)COc2cc(ccc2Cl)Nc2ncnc3c2c(cn3C)C1 [Compound 146]	0.631	> 10	> 10	> 10	> 10	> 10	> 10
CN1CCCN(C)C(=O)COc2cc(ccc2N2CCCC2)Nc2ncnc3[nH]cc(c23)C1 [Compound 82]	0.0794	1.26	2	1.58	2	3.16	7.94
CN1CC(=O)NCCOc2cccc(c2)Nc2ncnc3[nH]cc(c23)C1 [Compound 23]	1.58	1.26	1	1.58	1	3.16	5.01
CN1CCN(C)C(=O)COc2cccc(c2)Nc2ncnc3[nH]cc(c23)C1 [Compound 58]	0.0501	2.51	5.01	6.31	3.16	7.94	10
COc1ccc2cc1CN(C)CCCC(=O)N(C)CCCc1c[nH]c3ncnc(c13)N2 [Compound 5]	> 10	> 10	> 10	> 10	> 10	> 10	> 10
COc1ccc2cc1OCCCNC(=O)CN(C)Cc1c[nH]c3ncnc(c13)N2 [Compound 6]	0.501	1.26	1.58	1.58	1.58	3.98	5.01
COCCOc1ccc2cc1OCC(=O)N(C)CCCNCc1c[nH]c3ncnc(c13)N2 [Compound 138]	0.0251	1	5.01	> 10	0.631	> 10	> 10
COc1ccc2cc1OCC(=O)N(C(C)C)CCCN(C)Cc1c[nH]c3ncnc(c13)N2 [Compound 12]	0.0794	7.94	> 10	6.31	5.01	> 10	> 10
